Laboratory results taken from US4500526A, “Cephalosporin derivatives” (Bristol-Myers Company, priority 1983, dated 1985).
Converted amounts (≈) assume the structure as drawn.

Tests used:
[1] = tested on: Ps. aeruginosa (6 strains); assay: MIC, two-fold serial agar dilution, group (G-)-III; format: cell-based; conditions: Pseudomonas aeruginosa, read-out: Geometric Mean of MIC
Description: (§1) In the primary evaluation of the compounds of this invention, the Minimum Inhibitory Concentrations (MIC's) of the compounds were determined by the two-fold serial agar dilution method in Mueller-Hinton agar against 32 strains of test organisms in six groups. The sample weights of the test compounds were adjusted according to the purity of each compound, so as to give a more accurate measure of the MIC's.
(G-)III: Ps. aeruginosa (6 strains)

[2] = tested on: M. morganii (1 strain), Ent. cloacae (2 strains) and Ser. marcescens (2 strains); assay: MIC, two-fold serial agar dilution, group (G-)-II; format: cell-based; conditions: (G-)-II, 5 strains, Mueller-Hinton agar; read-out: Geometric Mean of MIC
Description: as §1
(G-)II: M. morganii (1 strain), Ent. cloacae (2 strains) and Ser.

[3] = Mouse blood levels after single intramuscular injection; format: in vivo, mice; conditions: in vivo, im, 20 mg/kg
Description: The absorption of some of the preferred compounds were determined in mice following a single intramuscular injection of the test compound (dissolved in 0.1M phosphate buffer; pH 7) at a dosage of 20 mg/kg. Blood samples were collected from the orbital sinuses into heparinized capillary tubes and assayed in Nutrient Agar (pH 6.6) using E. coli Ess-22-31 as the test organism. The blood levels at various time intervals, the half-life values (t1/2) and the areas under the curve (AUC) are shown in Table 2.

[4] = tested on: E. coli Juhl; assay: Median protective dose in infected mice; format: in vivo; conditions: Escherichia coli, im, immediately after intraperitoneal challenge, read-out: PD50
Description: (§2) The median protective dose (PD50) of some of the preferred compounds against various microorganisms was determined in mice by intramuscular administration of the test compound immediately after an intraperitoneal bacterial challenge.

[5] = tested on: P. aeruginosa A9843; assay: Median protective dose in infected mice; format: in vivo; conditions: Pseudomonas aeruginosa, im, immediately after intraperitoneal challenge, read-out: PD50
Description: as §2

[6] = tested on: S. aureus Smith; assay: Median protective dose in infected mice; format: in vivo; conditions: Staphylococcus aureus, im, immediately after intraperitoneal challenge, read-out: PD50
Description: as §2

[7] = tested on: Penicillinsensitive S. aureus (5 strains); assay: MIC, two-fold serial agar dilution, group (G+)-Ia; format: cell-based; conditions: Staphylococcus aureus; (G+)-Ia, 5 strains, Mueller-Hinton agar; read-out: Geometric Mean of MIC
Description: as §1
(G+)Ia: Penicillinsensitive S. aureus (5 strains)

[8] = tested on: Cephalothinsensitive E. coli (2 strains), Kl. pneumoniae (1 strain) and Pr. mirabilis (2 strains); assay: MIC, two-fold serial agar dilution, group (G-)-Ia; format: cell-based; conditions: 5 strains, Mueller-Hinton agar, read-out: Geometric Mean of MIC
Description: as §1
(G-)Ia: Cephalothinsensitive E. coli (2 strains), Kl. pneumoniae (1
strain) and Pr. mirabilis (2 strains)

[9] = tested on: Cephalothinresistant E. coli (3 strains) and Kl. pneumoniae (3 strains); assay: MIC, two-fold serial agar dilution, group (G-)-Ib; format: cell-based; conditions: Escherichia coli, read-out: Geometric Mean of MIC
Description: as §1
(G-)Ib: Cephalothinresistant E. coli (3 strains) and Kl. pneumoniae (3

[10] = tested on: H. influenzae (7) (ampicillin sensitive); assay: In vitro activity against fastidious bacteria, two-fold serial agar dilution; format: cell-based; conditions: Haemophilus influenzae, GC agar, 7 strains, read-out: Geometric Mean of MIC
Description: (§3) The in vitro activity of some of the preferred compounds against 30 strains of fastidious bacteria was determined by the two-fold serial agar dilution method in Gonococcus agar (GC agar), and the results are shown in Table 3.

[11] = tested on: N. gonorrhoeae (5); assay: as above; format: cell-based; conditions: Neisseria gonorrhoeae, read-out: Geometric Mean of MIC
Description: as §3

[12] = tested on: H. influenzae (3) (ampicillin resistant); assay: as above; format: cell-based; conditions: Haemophilus influenzae, read-out: Geometric Mean of MIC
Description: as §3

[13] = tested on: S. pneumoniae (5); assay: as above; format: cell-based; conditions: Streptococcus pneumoniae; GC agar; read-out: Geometric Mean of MIC
Description: as §3

[14] = tested on: N. meningitidis (5); assay: as above; format: cell-based; conditions: Neisseria meningitidis, read-out: Geometric Mean of MIC
Description: as §3

[15] = tested on: S. pyogenes (5 strains); assay: as above; format: cell-based; conditions: Streptococcus pyogenes; GC agar; read-out: Geometric Mean of MIC
Description: as §3

[16] = tested on: Penicillinresistant S. aureus (5 strains); assay: MIC, two-fold serial agar dilution, group (G+)-Ib; format: cell-based; conditions: Staphylococcus aureus; (G+)-Ib, 5 strains, Mueller-Hinton agar; read-out: Geometric Mean of MIC
Description: as §1
(G+)Ib: Penicillinresistant S. aureus (5 strains)

Nc1nc(/C(=N/OC2(C(=O)O)CCC2)C(=O)NC2C(=O)N3C(C(=O)[O-])=C(C[n+]4ccc5scnc5c4)CS[C@H]23)cs1 (stereo partly shown) [Ie, 7-[(Z)-2-(2-Aminothiazol-4-yl)-2-(1-carboxycyclobut-1-oxyimino)-acetamido]-3-{(5-thiazolo[4,5-c]pyridinio)methyl}-3-cephem-4-carboxylate]
MIC [1]: 1.3 µg/mL (≈ 2.11 µM) | MIC [2]: 0.34 µg/mL (≈ 0.552 µM) | AUC [3]: 7900 ng·h/mL | concentration at 10 min [3]: 13000 ng/mL | concentration at 20 min [3]: 12000 ng/mL | concentration at 0.5 h [3]: 7500 ng/mL | concentration at 40 min [3]: 4300 ng/mL | concentration at 50 min [3]: 3000 ng/mL | concentration at 1 h [3]: 2600 ng/mL | concentration at 1.5 h [3]: 510 ng/mL | concentration at 2 h [3]: 150 ng/mL | half-life [3]: 16 min | ED50 [4]: 0.08 mg/kg | ED50 [5]: 1.8 mg/kg | ED50 [6]: 3.1 mg/kg | MIC [7]: 2.2 µg/mL (≈ 3.57 µM) | MIC [8]: 0.023 µg/mL (≈ 0.0374 µM) | MIC [9]: 0.5 µg/mL (≈ 0.812 µM) | MIC [10]: 0.1 µg/mL (≈ 0.162 µM) | MIC [11]: 0.1 µg/mL (≈ 0.162 µM) | MIC [12]: 0.1 µg/mL (≈ 0.162 µM) | MIC [13]: 0.2 µg/mL (≈ 0.325 µM) | MIC [14]: 0.1 µg/mL (≈ 0.162 µM) | MIC [15]: 0.2 µg/mL (≈ 0.325 µM) | MIC [16]: 4.4 µg/mL (≈ 7.15 µM)
